Assay results published in article PMC6835763, “Influence of Short Cationic Lipopeptides with Fatty Acids of Different Chain Lengths on Bacterial Biofilms Formed on Polystyrene and Hydrogel Surfaces” (Pharmaceutics, 2019).
“And” between values parts separate entries of the source, which are not always exact repeats. Equal values may be shown once. Where a SMILES comes first, the peptide text is derived from it. Bridges are numbered along the chain shown (N, C = ends). Roman numbers before positions name the chains, in order. The star is where a group is joined. Palmitoyl = CCCCCCCCCCCCCCCC(=O)*; Myristoyl = CCCCCCCCCCCCCC(=O)*; Lauroyl = CCCCCCCCCCCC(=O)*

Tests used:
Format in all cases: cell-based
[1] = tested on: Escherichia coli ATCC 25922; assay: MBFIC assay (biofilm formation inhibition, resazurin); conditions: ca. 5 × 10^8 CFU/mL in MHB II, 37 °C, 18 h, visual, triplicate; for MBFIC E. coli, CL: contact lenses (CL, Etafilcon A hydrogel) in 24-well plates; for MBFIC E. coli, PS: polystyrene plates (PS), 96-well
Experimental: (§1) To determine the inhibitory effect of antimicrobials on the formation of biofilm on hydrophobic surfaces, the bacterial suspensions of strains (initial inoculum of ca. 5 × 10^8 CFU/mL in MHB II medium supplemented with antimicrobials) were cultured on 96-well PS at 37 °C for 18 h under aerobic conditions. After incubation, the suspensions were aspirated, and the wells were rinsed three times with sterile phosphate buffer PBS (AppliChem, Darmstadt, Germany) in order to remove the planktonic cells. Resazurin (final concentration per sample = 0.005%) was applied as a cell viability reagent for reading the results. In contact with the living cells, the dye is metabolized by bacterial dehydrogenases, resulting in a reduction of blue resazurin to pink resorufin. All assays were performed in triplicate and included the growth controls (positive controls: bacterial suspensions without antimicrobials) and the sterility controls (negative controls: a sterile MBH medium). After 1h of incubation, a visual evaluation of results was made. […] In a preliminary study, it was established that the application of lipopeptides at a concentration found active from visual evaluation caused the reduction of bacterial metabolism to approximately 10% (or less) of the positive control once the results were evaluated with a spectrophotometer. After 1 h of incubation with the dye, absorbance was measured at 570 and 600 nm using a microplate reader (Thermo Fisher Scientific, Waltham, MA, USA). The metabolic activity of bacteria in the samples was measured according to the formula presented in the previous paper.
(§2) The MBFIC assay with CL was applied in order to access the influence of lipopeptides on the biofilm formation on hydrogel surfaces. The entire sterile CL (1-Day Acuvue Moist, containing Etafilcon A., purchased from Johnson & Johnson (Vision Care, Jacksonsville, FL, USA), were placed in 24-well PS (Orange Scientific, Braine-l’ Alleud, Belgium) and the MBFICs were determined according to the above protocol.

[2] = tested on: Staphylococcus aureus ATCC 25923; assay: as above; conditions: for MBFIC S. aureus, CL: contact lenses (CL, Etafilcon A hydrogel) in 24-well plates; for MBFIC S. aureus, CL / MBFIC S. aureus, PS: ca. 5 × 10^8 CFU/mL in MHB II, 37 °C, 18 h, resazurin, visual, triplicate; for MBFIC S. aureus, PS: polystyrene plates (PS), 96-well
Experimental: as §1, §2

[3] = tested on: Pseudomonas aeruginosa ATCC 9027; assay: as above; conditions: ca. 5 × 10^8 CFU/mL in MHB II, 37 °C, 18 h, visual, triplicate; for MBFIC P. aeruginosa, CL: contact lenses (CL, Etafilcon A hydrogel) in 24-well plates; for MBFIC P. aeruginosa, PS: polystyrene plates (PS), 96-well
Experimental: as §1, §2

[4] = tested on: Staphylococcus epidermidis ATCC 14990; assay: as above; conditions: for MBFIC S. epidermidis, CL: contact lenses (CL, Etafilcon A hydrogel) in 24-well plates; for MBFIC S. epidermidis, CL / MBFIC S. epidermidis, PS: ca. 5 × 10^8 CFU/mL in MHB II, 37 °C, 18 h, resazurin, visual, triplicate; for MBFIC S. epidermidis, PS: polystyrene plates (PS), 96-well; for concentrations inhibiting formation of SE biofilm (MBFIC range): range over PS and CL
Experimental: as §1, §2

[5] = tested on: Enterococcus faecalis ATCC 29212; assay: as above; conditions: ca. 5 × 10^8 CFU/mL in MHB II, 37 °C, 18 h, visual, triplicate; for MBFIC E. faecalis, CL: contact lenses (CL, Etafilcon A hydrogel) in 24-well plates; for MBFIC E. faecalis, PS: polystyrene plates (PS), 96-well
Experimental: as §1, §2

[6] = tested on: Proteus mirabilis PCM 543; assay: as above; conditions: ca. 5 × 10^8 CFU/mL in MHB II, 37 °C, 18 h, visual, triplicate; for MBFIC P. mirabilis, CL: contact lenses (CL, Etafilcon A hydrogel) in 24-well plates; for MBFIC P. mirabilis, PS: polystyrene plates (PS), 96-well
Experimental: as §1, §2

gram-positive strains = assay: MIC, broth microdilution, range over strains; conditions: range over the gram-positive strains, liquid culture
Experimental: The MICs of synthetic lipopeptides and conventional antimicrobials were determined using the broth microdilution method according to the Clinical and Laboratory Standard Institute (CLSI) guidelines on reference strains. […] The PS were incubated under aerobic conditions at 37 °C for 18 h. The MIC (μg/mL) was assumed as the lowest concentration of the compound that inhibited the growth of the microorganisms. All experiments were performed in triplicate and included the growth and sterility controls.

Compound	MBFIC E. coli, CL [1]	MBFIC E. coli, PS [1]	MBFIC S. aureus, CL [2]	MBFIC S. aureus, PS [2]	MBFIC P. aeruginosa, CL [3]	MBFIC P. aeruginosa, PS [3]	MBFIC S. epidermidis, CL [4]	MBFIC S. epidermidis, PS [4]	concentrations inhibiting formation of SE biofilm (MBFIC range) [4]	MBFIC E. faecalis, CL [5]	MBFIC E. faecalis, PS [5]	MBFIC P. mirabilis, CL [6]	MBFIC P. mirabilis, PS [6]	concentrations inhibiting growth of gram-positive strains (MIC range) (gram-positive strains)	concentrations inhibiting formation of SA biofilm (MBFIC range) ([2]; range over PS and CL)
CCCCCCCCCCCC(=O)N[C@@H](CCCCN)C(=O)N[C@@H](CCCCN)C(=O)N[C@@H](CSSC[C@H](NC(=O)[C@H](CCCCN)NC(=O)[C@H](CCCCN)NC(=O)CCCCCCCCCCC)C(N)=O)C(N)=O [Lipopeptide 1, C12-KKC-NH2] (I: Lauroyl-Lys-Lys-Cys-NH2 / II: Lauroyl-Lys-Lys-Cys-NH2; disulfide I:3-II:3)	128/128 μg/mL	128/128 μg/mL	32/32 μg/mL	32/32 μg/mL	128 µg/mL	512 µg/mL	16 µg/mL	8 µg/mL	8 to 16 µg/mL	64 µg/mL	16 µg/mL	>512/>512 μg/mL	>512/>512 μg/mL	2 to 8 mg/L	–
CCCCCCCCCCCCCC(=O)N[C@@H](CCCCN)C(=O)N[C@@H](CCCCN)C(=O)N[C@@H](CSSC[C@H](NC(=O)[C@H](CCCCN)NC(=O)[C@H](CCCCN)NC(=O)CCCCCCCCCCCCC)C(N)=O)C(N)=O [Lipopeptide 3, C14-KKC-NH2] (I: Myristoyl-Lys-Lys-Cys-NH2 / II: Myristoyl-Lys-Lys-Cys-NH2; disulfide I:3-II:3)	64 µg/mL	256 µg/mL	32 µg/mL	64 µg/mL	512/512 μg/mL	512/512 μg/mL	32 µg/mL	64 µg/mL	–	64 µg/mL	256 µg/mL	512/512 μg/mL	512/512 μg/mL	–	–
CCCCCCCCCCCCCC(=O)N[C@@H](CCCCN)C(=O)N[C@@H](CCCNC(=N)N)C(N)=O [Lipopeptide 4, C14-KR-NH2] (Myristoyl-Lys-Arg-NH2)	128/128 μg/mL	128/128 μg/mL	2 µg/mL	16 µg/mL	128 µg/mL	256 µg/mL	32/32 μg/mL	32/32 μg/mL	–	64 µg/mL	128 µg/mL	512/>512 μg/mL	512/>512 μg/mL	–	2 to 16 µg/mL
CCCCCCCCCCCCCCCC(=O)N[C@@H](CCCCN)C(=O)NCC(=O)N[C@@H](CCCCN)C(N)=O [Lipopeptide 5, C16-KGK-NH2] (Palmitoyl-Lys-Gly-Lys-NH2)	128 µg/mL	64 µg/mL	32/32 μg/mL	32/32 μg/mL	256 µg/mL	512 µg/mL	64 µg/mL	32 µg/mL	–	64/64 μg/mL	64/64 μg/mL	>512/512 μg/mL	>512/512 μg/mL	–	–
CCCCCCCCCCCCCCCC(=O)N[C@@H](CCCCN)C(=O)N[C@@H](CCCCN)C(=O)N[C@@H](CCCCN)C(N)=O [Lipopeptide 7, C16-KKK-NH2]	32 µg/mL	64 µg/mL	32/32 μg/mL	32/32 μg/mL	512/512 μg/mL	512/512 μg/mL	32 µg/mL	8 µg/mL	–	64/64 μg/mL	64/64 μg/mL	256 µg/mL	512 µg/mL	–	–
CCCCCCCCCCCCCCCC(=O)N[C@@H](CCCCN)C(=O)N[C@@H](CCCNC(=N)N)C(N)=O [Lipopeptide 8, C16-KR-NH2] (Palmitoyl-Lys-Arg-NH2)	64 μg/mL and 64/64 μg/mL	64 μg/mL and 64/64 μg/mL	16 µg/mL	8 µg/mL	128 µg/mL	512 µg/mL	32 µg/mL	16 µg/mL	–	64/64 μg/mL	64/64 μg/mL	512/512 μg/mL	512/512 μg/mL	–	–
(C10)2-KKKK-NH2 [Lipopeptide 9]	64 µg/mL	128 µg/mL	16 µg/mL	8 µg/mL	64 μg/mL and 64/64 μg/mL	64 μg/mL and 64/64 μg/mL	16 µg/mL	8 µg/mL	8 to 16 µg/mL	64/64 μg/mL	64/64 μg/mL	512/512 μg/mL	512/512 μg/mL	–	–
